Laboratory results taken from patent US4943566A, “Novel 17-aryl-steroids” (Roussel Uclafi, priority 1987, dated 1990).

How the values were obtained:
[1] = target: T1, glucocorticoid receptor, rat thymus (Rattus norvegicus, UniProt P06536); test: Relative binding affinity (ARL), glucocorticoid receptor of rat thymus; settings: rat thymus cytosol, tritiated dexamethasone, cold reference dexamethasone; for relative affinity of the bond (ARL), Glucocorticoid, 2H: incubation 2H at 0° C.; for relative affinity of the bond (ARL), Glucocorticoid, 24H: incubation 24H at 0° C.
T1 construct: The second test was a glucocrticoid receptor test on rat thymus; from tissue; host or cells: thymus of adrenalectomized male Sprague Dawley EOPS rats, 105,000 g supernatant (cytosol)
T1 sequence (P06536 1-795): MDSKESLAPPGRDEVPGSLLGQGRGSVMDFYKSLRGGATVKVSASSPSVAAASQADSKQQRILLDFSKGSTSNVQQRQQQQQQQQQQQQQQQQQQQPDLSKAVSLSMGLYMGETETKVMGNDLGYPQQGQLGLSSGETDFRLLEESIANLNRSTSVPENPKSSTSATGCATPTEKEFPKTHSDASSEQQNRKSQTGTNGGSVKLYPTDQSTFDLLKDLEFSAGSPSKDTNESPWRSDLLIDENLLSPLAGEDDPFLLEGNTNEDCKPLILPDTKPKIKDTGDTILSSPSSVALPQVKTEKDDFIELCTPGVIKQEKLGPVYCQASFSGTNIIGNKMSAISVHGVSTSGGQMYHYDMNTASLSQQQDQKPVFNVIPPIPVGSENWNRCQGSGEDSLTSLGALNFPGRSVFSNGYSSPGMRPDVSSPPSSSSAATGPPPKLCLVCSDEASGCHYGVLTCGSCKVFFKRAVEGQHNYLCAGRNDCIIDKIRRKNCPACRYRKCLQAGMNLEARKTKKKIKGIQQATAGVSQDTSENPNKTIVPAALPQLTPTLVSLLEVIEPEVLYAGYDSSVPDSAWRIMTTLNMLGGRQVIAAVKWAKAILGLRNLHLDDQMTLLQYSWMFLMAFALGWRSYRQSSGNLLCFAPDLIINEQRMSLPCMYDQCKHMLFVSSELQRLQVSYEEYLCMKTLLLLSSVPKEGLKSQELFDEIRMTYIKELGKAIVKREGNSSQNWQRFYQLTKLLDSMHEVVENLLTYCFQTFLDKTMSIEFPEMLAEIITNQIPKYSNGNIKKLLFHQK
Protocol: The second test was a glucocrticoid receptor test on rat thymus in which male rats of the Sprague Dawley EOPS strain weighing 160 to 200 g were surrenalectomized. 4 to 8 days after this ablation, the animals were killed and the thymus was removed and homogenized at 0° C. in a buffered TS solution. (Tris 10 mM, 0.25M saccharose, 2 mM dithiothreitol, HCl pH 7.4) with a Potter tetrafluoroethylene-glass (1 g of tissue per 10 ml/TS). The homogenate was ultracentrifuged at 105,000 for 90 minutes at 0° C. and the surnageant samples were incubated at 0° C. for a time t with a constant concentration T of tritiated dexamethasone in the presence of increasing concentrations (0-2500×10^-9 M) or cold dexamethasone or cold test compound. The concentration B of bound tritiated dexamethasone was measured for each incubate by carbon-dextran absorption technique.
(§1) The relative affinity of the bond (ARL) was calculated in the same for the receptors. One traced the following 2 curves: the percentage of bond tritiated hormone B/T as a logarithmic function of the concentration of the cold reference hormone and B/T as a logarithmic function of the concentration of the cold test compound. Using the equation [formula] B/T max.=% of bound tritiated hormone for one incubation of tritiated hormone at concentration (T)
(§2) B/T min.=% of bound tritiated hormone for one incubation of tritiated hormone at a concentration T in the presence of a great excess of cold hormone (2500×10^-9 M).
(§3) The intersections of I50 lines and the curves permit an evaluation of the hormone concentration of the cold reference (CH) and the cold test compound (CX) which inhibited by 50% the bounding of tritiated hormone to the receptor. The ARL of the test compound was determined by the equation. [formula] and the following results were obtained.

[2] = target: T2, progesterone receptors of rabbit uterus (Oryctolagus cuniculus, UniProt P06186); test: Relative binding affinity (ARL), progesterone receptors of rabbit uterus; settings: rabbit uterus cytosol, tritiated 17,21-dimethyl-19-nor-Δ4,9-pregnadiene-3,20-dione, cold reference hormone progesterone; for relative affinity of the bond (ARL), Progestogen, 2H: incubation 2H at 0° C.; for relative affinity of the bond (ARL), Progestogen, 24H: incubation 24H at 0° C.
T2 construct: The first test was on the progesterone receptors of rabbit uterus; from tissue; host or cells: uterus of estradiol-treated immature rabbits, 105,000 g supernatant (cytosol)
T2 sequence (P06186 1-930): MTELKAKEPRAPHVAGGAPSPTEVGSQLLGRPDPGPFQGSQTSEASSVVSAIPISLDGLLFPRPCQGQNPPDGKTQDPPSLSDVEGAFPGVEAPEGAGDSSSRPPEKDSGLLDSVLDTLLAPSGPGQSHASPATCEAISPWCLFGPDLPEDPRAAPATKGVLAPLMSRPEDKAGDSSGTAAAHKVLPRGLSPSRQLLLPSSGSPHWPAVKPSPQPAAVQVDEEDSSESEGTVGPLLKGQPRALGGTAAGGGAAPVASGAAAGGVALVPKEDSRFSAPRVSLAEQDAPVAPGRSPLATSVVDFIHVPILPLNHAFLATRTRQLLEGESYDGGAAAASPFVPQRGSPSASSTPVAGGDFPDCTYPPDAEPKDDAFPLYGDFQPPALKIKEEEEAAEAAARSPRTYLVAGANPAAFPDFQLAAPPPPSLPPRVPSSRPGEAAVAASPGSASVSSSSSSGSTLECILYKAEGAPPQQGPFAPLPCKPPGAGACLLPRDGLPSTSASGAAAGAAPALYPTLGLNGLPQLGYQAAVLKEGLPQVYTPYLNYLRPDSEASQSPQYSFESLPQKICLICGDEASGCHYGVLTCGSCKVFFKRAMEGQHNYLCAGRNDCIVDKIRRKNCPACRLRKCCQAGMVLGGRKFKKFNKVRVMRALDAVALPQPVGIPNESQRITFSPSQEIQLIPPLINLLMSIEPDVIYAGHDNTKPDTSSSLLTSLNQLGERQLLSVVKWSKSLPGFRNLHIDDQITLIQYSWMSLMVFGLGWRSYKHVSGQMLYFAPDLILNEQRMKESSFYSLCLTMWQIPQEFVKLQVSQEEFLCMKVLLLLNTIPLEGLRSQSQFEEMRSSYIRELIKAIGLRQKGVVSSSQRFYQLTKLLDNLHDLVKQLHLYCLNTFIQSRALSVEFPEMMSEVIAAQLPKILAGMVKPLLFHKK
Protocol: The first test was on the progesterone receptors of rabbit uterus in which immature rabbits weighing about 1 kg received a cutaneous application of […] of estradiol and 5 days after treatment, the animals were sacrificed. The […] was removed, weighed and homogenized at 0° C. with a Potter Teflon-glass ina buffered solution. TS (Tris 10 mM, 0.25M Saccharose, HCl, pH 7.4) (1 g of tissue per 50 ml of TS). The homogenate was ultracentrifuged at 105,000 g×90 minutes at 0° C. The surnageant samples were incubated at a time at (t) 0° C. with a constant concentration (T) of tritiated product (R) which is 17,21-dimethyl-19-nor-Δ^4,9 -pregnadiene-3,20-dione in the presence of increasing concentrations from 0 to 2500×10^-9 M or cold R or cold progestenone or cold test compound. The concentration of bound tritiated R was measured for each incubate by absorption technique on dextran carbon.
as §1, §2, §3

relative affinity of the bond (ARL), Glucocorticoid, 2H [1] | relative affinity of the bond (ARL), Glucocorticoid, 24H [1] | relative affinity of the bond (ARL), Progestogen, 2H [2] | relative affinity of the bond (ARL), Progestogen, 24H [2] | SMILES
61 | 58 | 32 | 183 | CN(C)c1ccc([C@H]2C[C@@]3(C)[C@@H](CC[C@@]3(O)c3ccc(N(C)C)cc3)[C@@H]3CCC4=CC(=O)CCC4=C32)cc1 [Example 2, 11β,17α-bis-(4-dimethylamino-phenyl)-Δ^4,9-estradiene-17β-ol-3-one]
65 | 69 | 51 | 264 | COc1ccc([C@]2(O)CC[C@H]3[C@@H]4CCC5=CC(=O)CCC5=C4[C@@H](c4ccc(N(C)C)cc4)C[C@@]32C)cc1 [Example 4, 11β-(4-dimethylamino-phenyl)-17α-(4-methoxy-phenyl)-Δ^4,9-estradiene-17β-ol-3-one]
